Measured values from patent US20080051429A1, “USE OF 4-AMINO-PIPERIDINES FOR TREATING SLEEP DISORDERS” (priority 2006, published 2008).

Legend:
Assay in all cases: R-SAT broad profiling
Assay type in all cases: cell-based
Conditions in all cases: read-out: pEC50/pIC50 (converted)
alpha 2B = target: T1, alpha 2B (Homo sapiens, UniProt P18089)
T1 construct: expressed in transfected cells; host or cells: NIH3T3
T1 sequence (P18089 1-450): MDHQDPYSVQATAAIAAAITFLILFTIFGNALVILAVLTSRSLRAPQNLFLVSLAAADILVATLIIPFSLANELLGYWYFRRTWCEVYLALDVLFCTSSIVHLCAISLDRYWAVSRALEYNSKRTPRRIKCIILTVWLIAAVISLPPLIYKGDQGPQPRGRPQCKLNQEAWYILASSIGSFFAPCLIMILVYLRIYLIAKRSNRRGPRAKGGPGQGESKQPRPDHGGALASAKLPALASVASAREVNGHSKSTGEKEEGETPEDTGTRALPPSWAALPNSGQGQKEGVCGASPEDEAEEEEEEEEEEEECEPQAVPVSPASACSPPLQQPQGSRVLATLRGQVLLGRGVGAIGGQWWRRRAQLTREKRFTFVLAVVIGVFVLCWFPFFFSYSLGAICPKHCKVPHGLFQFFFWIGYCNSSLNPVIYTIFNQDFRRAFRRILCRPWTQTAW
Method: (§1) The functional receptor assay, Receptor Selection and Amplification Technology (R-SAT), was used (with minor modifications from that previously described U.S. Pat. No. 5,707,798) to screen compounds for efficacy at the 5-HT2A receptor. Briefly, NIH3T3 cells were grown in 96 well tissue culture plates to 70-80% confluence. Cells were transfected for 12-16 hours with plasmid DNAs using superfect (Qiagen Inc.) as per manufacture's protocols. R-SAT's were generally performed with 50 ng/well of receptor and 20 ng/well of Beta-galactosidase plasmid DNA. All receptor and G-protein constructs used were in the pSI mammalian expression vector (Promega Inc) as described in U.S. Pat. No. 5,707,798. The 5HT2A receptor gene was amplified by nested PCR from brain cDNA using the oligodeoxynucleotides based on the published sequence (see Saltzman et. al. Biochem. Biophys. Res. Comm. 181:1469-78 (1991)). Large-scale transfections, cells were transfected for 12-16 hours, then trypsinized and frozen in DMSO. Frozen cells were later thawed, plated at 10,000-40,000 cells per well of a 96 well plate that contained drug. With both methods, cells were then grown in a humidified atmosphere with 5% ambient CO2 for five days. Media was then removed from the plates and marker gene activity was measured by the addition of the beta-galactosidase substrate ONPG (in PBS with 5% NP-40). The resulting colorimetric reaction was measured in a spectrophotometric plate reader (Titertek Inc.)at […]. All data were analyzed using the computer program XLFit (IDBSm). Efficacy is the percent maximal repression compared to repression by a control compound (ritanserin in the case of 5HT2A). pIC50 is the negative of the log(IC50), where IC50 is the calculated concentration in Molar that produces 50% maximal repression.
(§2) The R-SAT assay (described above in example 136) was used to investigate the selectivity of 2-(4-Methoxyphenyl)-N-(4-methylbenzyl)-N-(1-methylpiperidin-4-yl)acetamide hydrochloride.

5-HT7 = target: T2, 5-HT7 (Homo sapiens, UniProt P34969)
T2 construct: expressed in transfected cells
Method: as §1, §2

alpha 2C = target: T3, alpha 2C (Homo sapiens, UniProt P18825)
T3 construct: expressed in transfected cells; host or cells: NIH3T3
T3 sequence (P18825 1-462): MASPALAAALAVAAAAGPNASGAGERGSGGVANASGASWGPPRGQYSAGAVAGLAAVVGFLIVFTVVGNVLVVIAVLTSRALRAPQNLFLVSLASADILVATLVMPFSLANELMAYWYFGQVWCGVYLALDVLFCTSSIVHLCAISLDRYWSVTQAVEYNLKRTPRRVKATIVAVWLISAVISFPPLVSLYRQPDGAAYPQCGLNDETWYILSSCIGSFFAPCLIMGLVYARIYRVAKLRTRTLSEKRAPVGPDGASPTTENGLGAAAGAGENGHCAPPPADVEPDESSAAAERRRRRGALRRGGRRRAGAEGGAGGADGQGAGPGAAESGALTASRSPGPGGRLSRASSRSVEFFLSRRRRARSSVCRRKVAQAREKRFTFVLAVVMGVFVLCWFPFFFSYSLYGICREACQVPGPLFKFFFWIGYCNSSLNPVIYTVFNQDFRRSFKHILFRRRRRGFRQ
Method: as §1, §2

m2 = target: T4, m2 (Homo sapiens, UniProt P08172)
T4 construct: expressed in transfected cells; host or cells: NIH3T3
T4 sequence (P08172 1-466): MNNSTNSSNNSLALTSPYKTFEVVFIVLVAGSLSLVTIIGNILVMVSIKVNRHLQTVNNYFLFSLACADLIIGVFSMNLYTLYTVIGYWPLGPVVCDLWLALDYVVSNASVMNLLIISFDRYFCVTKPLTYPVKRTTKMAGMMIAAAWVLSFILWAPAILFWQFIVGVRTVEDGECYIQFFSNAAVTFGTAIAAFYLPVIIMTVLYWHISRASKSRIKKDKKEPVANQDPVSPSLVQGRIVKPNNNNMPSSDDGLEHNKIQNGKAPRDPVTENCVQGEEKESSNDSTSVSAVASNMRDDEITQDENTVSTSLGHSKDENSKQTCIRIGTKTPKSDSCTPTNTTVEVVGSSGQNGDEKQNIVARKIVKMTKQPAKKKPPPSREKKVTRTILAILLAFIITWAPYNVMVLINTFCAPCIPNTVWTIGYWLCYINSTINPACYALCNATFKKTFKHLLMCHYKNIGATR
Method: as §1, §2

m1 = target: T5, m1 (Homo sapiens, UniProt P11229)
T5 construct: expressed in transfected cells; host or cells: NIH3T3
T5 sequence (P11229 1-460): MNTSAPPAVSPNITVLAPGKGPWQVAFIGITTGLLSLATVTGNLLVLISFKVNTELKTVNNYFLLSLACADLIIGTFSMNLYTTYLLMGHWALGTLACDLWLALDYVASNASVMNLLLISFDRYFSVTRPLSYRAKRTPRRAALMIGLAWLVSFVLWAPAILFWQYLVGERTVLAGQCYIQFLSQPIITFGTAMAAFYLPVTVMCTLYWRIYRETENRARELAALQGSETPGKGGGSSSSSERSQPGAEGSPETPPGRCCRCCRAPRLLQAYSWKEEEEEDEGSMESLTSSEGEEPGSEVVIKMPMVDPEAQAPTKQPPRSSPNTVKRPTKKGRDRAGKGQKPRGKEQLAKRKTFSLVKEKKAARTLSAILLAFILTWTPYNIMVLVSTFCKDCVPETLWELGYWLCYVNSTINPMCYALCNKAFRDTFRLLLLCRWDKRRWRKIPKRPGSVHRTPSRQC
Method: as §1, §2

m3 = target: T6, m3 (Homo sapiens, UniProt P20309)
T6 construct: expressed in transfected cells; host or cells: NIH3T3
Method: as §1, §2

T2 sequence (P34969 whole entry, species assumed): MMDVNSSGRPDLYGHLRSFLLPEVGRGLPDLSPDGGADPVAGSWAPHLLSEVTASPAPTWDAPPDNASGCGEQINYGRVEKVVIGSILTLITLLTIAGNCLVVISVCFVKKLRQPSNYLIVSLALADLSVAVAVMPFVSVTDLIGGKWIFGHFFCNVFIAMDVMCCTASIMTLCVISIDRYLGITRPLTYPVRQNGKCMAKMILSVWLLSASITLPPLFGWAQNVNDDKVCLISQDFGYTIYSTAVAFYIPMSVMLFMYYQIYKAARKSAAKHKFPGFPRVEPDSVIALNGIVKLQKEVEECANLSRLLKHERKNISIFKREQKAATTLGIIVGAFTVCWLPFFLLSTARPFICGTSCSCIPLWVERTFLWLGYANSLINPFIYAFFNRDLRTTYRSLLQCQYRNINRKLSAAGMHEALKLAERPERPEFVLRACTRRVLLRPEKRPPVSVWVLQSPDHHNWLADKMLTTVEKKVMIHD
T6 sequence (P20309 whole entry): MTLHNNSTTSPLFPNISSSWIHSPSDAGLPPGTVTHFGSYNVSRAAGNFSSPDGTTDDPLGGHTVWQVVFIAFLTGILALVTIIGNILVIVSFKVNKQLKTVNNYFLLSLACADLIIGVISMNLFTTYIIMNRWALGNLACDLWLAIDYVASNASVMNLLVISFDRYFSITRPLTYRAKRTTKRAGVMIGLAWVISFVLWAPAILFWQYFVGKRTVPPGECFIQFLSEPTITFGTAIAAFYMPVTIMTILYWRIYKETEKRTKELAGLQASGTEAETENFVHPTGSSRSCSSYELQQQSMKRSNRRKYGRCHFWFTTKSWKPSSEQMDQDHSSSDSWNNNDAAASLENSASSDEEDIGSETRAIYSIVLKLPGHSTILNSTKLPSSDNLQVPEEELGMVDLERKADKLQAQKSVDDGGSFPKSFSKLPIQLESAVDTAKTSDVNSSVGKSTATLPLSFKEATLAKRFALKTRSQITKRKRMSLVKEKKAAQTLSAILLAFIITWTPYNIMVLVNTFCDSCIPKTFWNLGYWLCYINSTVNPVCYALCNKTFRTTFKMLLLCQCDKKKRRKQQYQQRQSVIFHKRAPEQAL

## COc1ccc(CC(=O)N(Cc2ccc(C)cc2)C2CCN(C)CC2)cc1 [Example 50ELH27, 2-(4-Methoxyphenyl)-N-(4-methylbenzyl)-N-(1-methylpiperidin-4-yl)acetamide]
Alpha 2B; agonist
  EC50: > 3.16 µM
Alpha 2B; antagonist
  IC50: > 3.16 µM
5-HT7; agonist
  EC50: > 3.16 µM
5-HT7; inverse agonist
  IC50: 0.126 µM
Alpha 2C; agonist
  EC50: > 3.16 µM
Alpha 2C; antagonist
  IC50: > 3.16 µM
m2; agonist
  EC50: > 3.16 µM
m2; antagonist
  IC50: > 3.16 µM
m1; agonist
  EC50: > 3.16 µM
m1; antagonist
  IC50: > 3.16 µM
m3; agonist
  EC50: > 3.16 µM
m3; antagonist
  IC50: > 3.16 µM
